Experimental data reported in US20240424043A1, “COMPOSITION FOR PREVENTING OR TREATING MUSCLE DISEASE COMPRISING ARALIA ELATA EXTRACT” (KOREA INSTITUTE OF SCIENCE AND TECHNOLOGY, priority 2023, published 2024).

How the values were obtained:
[1] = system: Mstn, Myd1, Myog, and Myf5 gene expression in C2C12 mouse-derived myotubes; assay: RT-qPCR of muscle cell differentiation-related gene expression; type: cell-based; details: dexamethasone 10 μM, beta-actin control, FIG. 7; for Mstn gene expression (marker of muscle growth inhibition): increased by dexamethasone; for Myd1 gene expression (marker of myogenic differentiation) / Myf5 gene expression (marker of myogenic differentiation) / Myog gene expression (marker of myogenic differentiation): reduced by dexamethasone
Procedure: (§1) C2C12 mouse-derived myotubes treated with dexamethasone 10 μM were washed twice with PBS, and total RNA was extracted according to the user-recommended protocol of an RNA extraction kit (GeneAll RNA isolation kit, Seoul, South Korea). cDNA was synthesized from the extracted RNA and subjected to real time-quantitative polymerase chain reaction (RT-qPCR). POR analysis was performed according to the user-recommended cycling conditions of the analyzer (Applied Biosystems 7900 HT thermal cycler, Applied Biosystems). To determine the expression level of each mRNA, fold change values relative to the control were calculated using beta-actin as an endogenous control, and relative expression levels were compared.

C2C12 myotubes [2] = assay: Oxidative stress (GSH content) and mitochondrial function in dexamethasone-treated myotubes; type: cell-based, mouse; details: 20 μM compound, 100 μM dexamethasone for 24 hours, FIG. 8; for glutathione (GSH) content: decreased by dexamethasone
Procedure: (§2) Cell culture and differentiation of myoblasts: C2C12 mouse (CRL1772; American type cell collection, USA) derived myoblasts were cultured in Dulbecco's Modified Eagle's Medium (DMEM) medium supplemented with 10 (v/v) % FBS, and after reaching 90% confluence, they were transferred to DMEM medium containing 2 (v/v) % horse serum and cultured for 7 days to differentiate into myotubes.
As in Example 4, C2C12 myoblasts were differentiated into myotubes, and then treated with 100 μM of dexamethasone for 24 hours to induce oxidative stress or mitochondrial dysfunction, and then treated with 20 μM of three compounds (catechol, 4-ethyl catechol, and methyl dihydroxycaffeate) isolated from the extract of Aralia Elata to determine their efficacy in ameliorating oxidative stress and mitochondrial dysfunction. […] Furthermore, the mitochondrial dysfunction induced by dexamethasone treatment was ameliorated by treatment with the present compound derived from the extract of Aralia Elata (FIG. 8).

[3] = system: Ppargc1a, UCp3, Tomm20, and Tfam gene expression in C2C12 mouse-derived cells; assay: RT-qPCR of exercise performance-related gene expression; type: cell-based; details: dexamethasone 10 μM, beta-actin control, reduced by dexamethasone, FIG. 9
Procedure: as §1, with “mouse-derived endodermal cells” for “mouse-derived myotubes”, “extracted RNA,” for “extracted RNA”, “(RT-qPCR). PCR” for “(RT-qPCR). POR”

[4] = system: Ppargc1a, UCp3, Tomm20, and Tfam gene expression in C2C12 mouse-derived endodermal cells; assay: as above; type: cell-based; details: dexamethasone 10 μM, beta-actin control, reduced by dexamethasone, FIG. 9
Procedure: as §1, with “mouse-derived endodermal cells” for “mouse-derived myotubes”, “extracted RNA,” for “extracted RNA”, “(RT-qPCR). PCR” for “(RT-qPCR). POR”

C2C12 myotubes [5] = assay: Myotube cell survival rate after dexamethasone-induced myoatrophy; type: cell-based, mouse; details: 20 μM compound; 100 μM dexamethasone for 24 hours; FIG. 5
Procedure: as §2
C2C12 myoblasts were differentiated into myotubes, and then treated with 100 μM of dexamethasone for 24 hours to induce myoatrophy, and 20 μM of 13 compounds isolated from the extract (see Table 1) to determine the effect of alleviating myoatrophy.

[6] = system: mice in which sarcopenia was induced by administration of Dexamethasone; assay: Grip strength and body weight in dexamethasone-induced sarcopenia mouse model; type: in vivo, C57BL/6J mice; details: compared to the group treated only with Dexamethasone (25 mg/kg i.p., 2 weeks); oral once daily 4 weeks; AE 10, 50 or 100 mg/kg, S-23 25 mg/kg; FIG. 2
Procedure: The present inventors created a sarcopenia mouse model to confirm the effectiveness of Aralia Elata extract prepared in the above-described preparation example to treat or improve sarcopenia, and measured grip strength using the control mouse and the sarcopenia mouse model.
The mice used to confirm the efficacy of Aralia Elata extract were prepared through the following process.
The test substance was prepared in the form of a liquid suspension using 0.5% CMC and administered for 4 weeks. To correct for the placebo effect of 0.5% CMC and the weight loss effect due to administration stress, 0.5% CMC was orally administered daily to the vehicle control group. Two weeks after administration of the test substance, the experimental group was administered intraperitoneal injection of Dexamethasone for two weeks to induce sarcopenia, and the normal control group was administered saline solution by intraperitoneal injection. All mice were provided with the same AlN76 diet (Research Diets), and the test substances were administered for an additional 2 weeks for a total of 4 weeks. The dark: light cycle was maintained at 12-hour:12-hour intervals, and water was allowed to be consumed freely. […] (Dex: Dexamethasone sarcopenia-inducing substance (25 mg/kg), AE: Aralia Elata extract (10, 50, or 100 mg/kg)).

| Compound | Mstn gene expression (marker of muscle growth inhibition) [1] | Myd1 gene expression (marker of myogenic differentiation) [1] | Myf5 gene expression (marker of myogenic differentiation) [1] | Myog gene expression (marker of myogenic differentiation) [1] | mitochondrial dysfunction induced by dexamethasone treatment (C2C12 myotubes [2]) | glutathione (GSH) content (C2C12 myotubes [2]) | Ppargc1a gene expression [3] | Tfam gene expression [4] | Tomm20 gene expression [4] | UCp3 gene expression [4] | viability of myotubes reduced by dexamethasone treatment (C2C12 myotubes [5]) | body weight [6] | grip strength [6] |
| --- | --- | --- | --- | --- | --- | --- | --- | --- | --- | --- | --- | --- | --- |
| CCc1ccc(O)c(O)c1 [4-ethyl catechol] | decreased | increased | increased | increased | ameliorated | increased again | increased | increased | increased | increased |  |  |  |
| Oc1ccccc1O [Compound 3, Catechol] | decreased | increased | increased | increased | ameliorated | increased again | increased | increased | increased | increased | significantly superior effect |  |  |
| CCc1ccc(O)c(O)c1 [Compound 4, 4-ethyl catechol] |  |  |  |  |  |  |  |  |  |  | significantly superior effect |  |  |
| C[C@](O)(COc1ccc(Cl)c(F)c1)C(=O)Nc1ccc(C#N)c(C(F)(F)F)c1 [Compound S-23] |  |  |  |  |  |  |  |  |  |  |  | increased | increased |
